Source: patent US20260076937A1, “COMPOSITION FOR PREVENTING OR TREATING AUTOIMMUNE DISEASES COMPRISING A BCAT1 INHIBITOR” (Seoul National University R&DB Foundation, priority 2024, published 2026)
Entries after “also recorded” stand apart in the source; their conditions may differ.

Columns and labels:
[1] = tested on: TCR-stimulated human CD4+ memory T cells; assay: Cytokine ELISA of culture supernatants, CD4+ memory T cells; assay type: cell-based
Procedure: The study protocol was reviewed and approved by the Institutional Review Board (IRB) of Seoul National University Hospital. Peripheral blood was drawn from healthy controls (HC) after obtaining written consent from study participants, and all experiments were performed according to approved guidelines. Peripheral blood mononuclear cells (PBMCs) were isolated from peripheral blood using density gradient centrifugation (Biocoll separation solution; BIOCHROM Inc., Cambridge, UK). Total CD4^+ T cells, naive T cells and memory CD4^+ T-cells were isolated in a negative selection manner from CD14^+ monocyte depleted PBMCs using the MojoSort™ Human Total CD4^+ T-Cells, CD4^+ naive T-cells and CD4^+ memory T-cell isolation kit (BioLegend, San Diego, Calif.). Purified T cells were cultured in RPMI 1640 medium (hereinafter, “complete RPMI 1640”) supplemented with 10% fetal bovine serum (FBS), 1% penicillin/streptomycin, and 1% L-glutamine. Cells were stimulated with anti-CD3/CD28-coated microbeads (1:10 ratio, Dynabeads T-Activator CD3/CD28, Thermo Fisher Scientific, Waltham, MA) in the presence of designated chemical inhibitors or reagents including 2-amino-2-norbornanecarboxylic acid (BCH), JPH203, acetate, MG132, VH298, cobalt chloride (CoCl2), cycloheximid (CHX) (all provided by Sigma-Aldrich, St. Louis, MO), BCAT1 inhibitor 2 (Bi2: provided by Cayman Chemical, Ann Arbor, MI), 3-hydroxy-3-methylbutyric acid (HMB; provided by Thermo Fisher Scientific, Waltham, MA), and L-β-homoleucine (LβhL; provided by Santa Cruz Biotechnology, Heidelberg, Germany). In some experiments, a customized medium depleted of five essential amino acids (leucine, valine, isoleucine, phenylalanine, methionine) was used (Welgene, Gyeongsan, South Korea). All amino acids used (L-leucine, L-valine, L-isoleucine, L-phenylalanine, L-methionine) were purchased from Sigma-Aldrich.
IL-17A and IFN-γ amounts in culture supernatants were quantified using commercially available human ELISA kits (IL-17A ELISA kit by eBioscience and human IFN-γ ELISA MAX Deluxe by BioLegend) according to the manufacturer's instructions. Light density was measured using an Infinite M200 instrument (Tecan, Männedorf, Switzerland).

[2] = tested on: human CD4+ memory T cells; assay: Cholesterol analysis in cell lysates; assay type: cell-based; settings: TCR stimulation 3 days; Bi2 10 μM, statin 10 μM
Procedure: Total cholesterol amount in cultured cells was determined using a fluorometric Amplex™ Red Cholesterol Assay Kit (Thermo Fisher Scientific) according to the manufacturer's instructions.

O=C(NNS(=O)(=O)c1ccccc1C(F)(F)F)c1cc2cc(Cl)ccc2o1 [Bi2, BCATc inhibitor 2]
IL-17A production in CD4+ memory T cells treated with statins [1]: further reduced | IFN-γ production by CD4+ memory T cells ([1]; TCR stimulation 3 days, Bi2 10 μM, JPH203 10 μM, HMB 0.4 mM, VH298 100 nM, LβhL 400 mg/L): did not affect | IL-17A production by CD4+ memory T cells ([1]; TCR stimulation 3 days, Bi2 10 μM, JPH203 10 μM, statin 10 μM, LβhL 400 mg/L): preferentially inhibited; also recorded: significantly reduced | intracellular cholesterol [2]: slight increase; also recorded: significantly increased
